Data on three compounds can be found in article PMC6502695 (Natural product research, 2018).

Each structure is given as a SMILES string.

Type in all cases: in vitro ADME
For one data set, the target named is human SULT 1A1 (Homo sapiens, UniProt P50225). The experiment in a line: Sulfating activity of purified human SULT1A1. The following applies: substrate 10 μM, mean ± SD, three experiments.
Another data set deals with human SULT 1A2 (Homo sapiens, UniProt P50226). In words: Sulfating activity of purified human SULT1A2. The following applies: substrate 10 μM, mean ± SD, three experiments.
A further data set concerns the target human SULT 1A3 (Homo sapiens, UniProt P0DMM9). In words: Sulfating activity of purified human SULT1A3.
The next data set deals with human SULT 1C4 (Homo sapiens, UniProt O75897). In words: Sulfating activity of purified human SULT1C4. The following applies: substrate 10 μM, mean ± SD, three experiments.
Data set [1] is described as follows: Sulfating activity of human liver cytosol. Conditions: mean ± SD, three experiments.
Data set [2] in a line: Sulfating activity of human small intestine cytosol. Conditions: mean ± SD, three experiments.
Setting [3] is: SULT 1A3, substrate 10 μM, mean ± SD, three experiments.

Sequence of human SULT 1A3 (P0DMM9 whole entry): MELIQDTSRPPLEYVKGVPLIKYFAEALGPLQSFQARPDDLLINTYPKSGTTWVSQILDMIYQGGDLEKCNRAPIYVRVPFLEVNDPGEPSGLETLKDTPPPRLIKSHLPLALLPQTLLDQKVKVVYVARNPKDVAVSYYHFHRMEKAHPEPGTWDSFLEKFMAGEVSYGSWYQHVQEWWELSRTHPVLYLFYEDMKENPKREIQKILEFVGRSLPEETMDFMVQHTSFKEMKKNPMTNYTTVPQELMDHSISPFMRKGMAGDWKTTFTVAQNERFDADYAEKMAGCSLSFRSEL
Sequence of human SULT 1A2 (P50226 whole entry): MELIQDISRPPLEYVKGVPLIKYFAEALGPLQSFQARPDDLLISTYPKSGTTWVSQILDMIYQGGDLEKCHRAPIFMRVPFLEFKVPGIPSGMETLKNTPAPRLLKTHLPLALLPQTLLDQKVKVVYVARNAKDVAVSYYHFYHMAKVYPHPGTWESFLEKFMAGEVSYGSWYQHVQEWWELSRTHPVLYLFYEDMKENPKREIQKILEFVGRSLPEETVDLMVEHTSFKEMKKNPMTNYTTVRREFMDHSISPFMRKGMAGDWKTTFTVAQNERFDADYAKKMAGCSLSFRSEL
Sequence of human SULT 1C4 (O75897 whole entry): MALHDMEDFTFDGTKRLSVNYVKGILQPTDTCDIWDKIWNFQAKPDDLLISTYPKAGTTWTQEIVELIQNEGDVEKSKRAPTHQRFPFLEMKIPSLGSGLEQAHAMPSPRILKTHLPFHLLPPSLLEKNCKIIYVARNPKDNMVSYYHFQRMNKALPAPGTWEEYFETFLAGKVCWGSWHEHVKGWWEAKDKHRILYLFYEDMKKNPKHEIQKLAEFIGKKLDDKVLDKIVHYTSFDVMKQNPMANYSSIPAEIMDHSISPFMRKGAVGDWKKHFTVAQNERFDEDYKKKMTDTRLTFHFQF
Sequence of human SULT 1A1 (P50225 whole entry): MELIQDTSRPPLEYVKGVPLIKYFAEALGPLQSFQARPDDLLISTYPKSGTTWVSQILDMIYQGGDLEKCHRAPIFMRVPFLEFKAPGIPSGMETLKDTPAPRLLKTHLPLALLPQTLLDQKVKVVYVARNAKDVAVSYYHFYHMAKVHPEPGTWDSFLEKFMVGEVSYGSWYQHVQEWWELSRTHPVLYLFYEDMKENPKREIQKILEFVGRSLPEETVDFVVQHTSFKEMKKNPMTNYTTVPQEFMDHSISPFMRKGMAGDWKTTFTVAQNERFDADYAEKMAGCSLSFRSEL

With `O=c1cc(-c2ccc(O)cc2)oc2cc(O)cc(O)c12` [Apigenin], the “Specific Activity (nmol substrate sulfated/min/mg purified enzyme)” value at human SULT 1A1 came out at 10.67 ± 0.99 nmol/min/mg; at human SULT 1A2, 7.90 ± 0.32 nmol/min/mg; on human SULT 1A3 (setting [3]), 6.38 ± 0.40 nmol/min/mg; at human SULT 1C4 it was 3.58 ± 0.09 nmol/min/mg. In addition, the “Specific Activity (pmol substrate sulfated/min/mg protein)” value in data set [1] (substrate 10 μM) is 20.87 ± 5.39 pmol/min/mg; in data set [1] (substrate 50 μM), 25.04 ± 2.20 pmol/min/mg; in data set [2] (substrate 10 μM), 88.59 ± 1.07 pmol/min/mg; in data set [2] (substrate 50 μM) it was 113.24 ± 0.32 pmol/min/mg.

Turning to `COc1ccc([C@@H]2CC(=O)c3c(O)cc(O)cc3O2)cc1O` [Hesperetin], the “Specific Activity (nmol substrate sulfated/min/mg purified enzyme)” value on human SULT 1A1 stood at 44.17 ± 1.16 nmol/min/mg; at human SULT 1A2, 28.16 ± 0.38 nmol/min/mg; on human SULT 1A3 (setting [3]), 29.80 ± 0.74 nmol/min/mg; at human SULT 1C4 it was 13.34 ± 0.49 nmol/min/mg. Further, the “Specific Activity (pmol substrate sulfated/min/mg protein)” value in data set [1] (substrate 10 μM) stood at 139.79 ± 6.87 pmol/min/mg; in data set [1] (substrate 50 μM), 181.73 ± 13.25 pmol/min/mg; in data set [2] (substrate 10 μM) it was 458.26 ± 11.82 pmol/min/mg; in data set [2] (substrate 50 μM), 643.61 ± 45.12 pmol/min/mg.

As to `O=C1C[C@@H](c2ccc(O)cc2)Oc2cc(O)cc(O)c21` [Naringenin], the “Specific Activity (nmol substrate sulfated/min/mg purified enzyme)” value at human SULT 1A1 is recorded as 24.85 ± 0.65 nmol/min/mg; at human SULT 1A2, 17.51 ± 0.31 nmol/min/mg; on human SULT 1A3 (human, 10 μM), 14.90 ± 0.15 nmol/min/mg; at human SULT 1C4, 11.99 ± 0.17 nmol/min/mg. Also, the “Specific Activity (pmol substrate sulfated/min/mg protein)” value in data set [1] (substrate 10 μM) is on record as 135.32 ± 15.67 pmol/min/mg; in data set [1] (substrate 50 μM), 156.97 ± 17.94 pmol/min/mg; in data set [2] (substrate 10 μM) it was 252.86 ± 13.22 pmol/min/mg; in data set [2] (substrate 50 μM) it was 354.21 ± 13.98 pmol/min/mg.
